Experimental data reported in US12697366B2, “Thermogenic compositions and methods” (Ohio State Innovation Foundation, priority 2016, dated 2026).

System: omental iAb preadipocytes
Assay: FD-glucose uptake in human omental iAb preadipocytes
Format: cell-based
Settings: for glucose uptake in preadipocytes from lean insulin-sensitive patients: EREG vs insulin; for glucose uptake in preadipocytes from an insulin resistant patient: different doses of EREG, insulin 10 μg/ml
Description: FIGS. 16A to 16M show EREG improves glucose uptake in ob/ob mice and in mouse and human preadipocytes. FIG. 16A: GTT was performed on fasting Veh (open circles) and EREG-treated (closed circles) ob/ob (N=5/group, Study 4) mice (12 hrs) using a single 25% dextrose injection (0.004 mL/g body weight). Asterisks indicate significant differences between Veh- and EREG-treated groups. FIG. 16B: ITT was performed in the same mice groups. […]: Fluorescently-labelled (FD) glucose uptake was measured in mouse […] preadipocytes. FIG. 16C: Preadipocytes were treated with vehicle, insulin (ins), EREG and forskolin for 30 mins. […] Asterisks represent significant differences compared to vehicle (P<0.05). FIG. 16D: Dose dependent increase in FD-glucose uptake by 3T3-L1 preadipocytes stimulated with different EREG concentrations. Data are shown as a percent of Veh-treated control. FIGS. 16E to 16G: FD-glucose uptake was measured in omental iAb preadipocytes isolated from lean (FIG. 16E) and obese insulin-resistant (FIG. 16F, 16G) patients in the presence of insulin, EREG, and forskolin. […] Omental preadipocytes from obese insulin resistant […] (FIG. 16G) and […] (FIG. 16K) were also stimulated with and without EREG in presence and absence of EGFR and MAPK inhibitors for 30 mins. Data were calculated as a percent to non-stimulated control (Veh, 100%, dash line) and shown as a mean±SD. Asterisks represent significant differences compared to vehicle (P<0.05), Mann-Whitney U test. FIG. 16H: FD-glucose uptake was measured in mouse 3T3-L1 preadipocytes with or without EREG (50 ng/mL) and inhibitors of MAPK and PI3K (MAPK-I, 10 uM, and PI3K-I, 200 nM). Data (mean±SD) are shown as percent to control (Veh 100%). […] P<0.05 indicate significant differences between EREG-treated and PI3K-I/EREG treated groups. Asterisks indicate significant differences between vehicle control and treatments with inhibitors. FIG. 16I: Phosphorylated (p-Akt) and non-phosphorylated (total) Akt protein levels were measured in mouse 3T3-L1 preadipocytes stimulated with or without EREG (50 ng/ml), PI3K-I (200 nM) for 20 mins by western blot and quantified by ImageJ Software. […] Asterisks represent significant differences compared to vehicle (P<0.05). FIG. 16J: Plasma insulin levels in fasting Veh and EREG-treated ob/ob mice measured by ELISA. FIG. 16L: Phosphorylated Akt protein levels were measured by western blot in human preadipocytes from an obese person stimulated with or without EREG (50 ng/ml) and PI3K-I (200 nM) for 20 mins. […] Asterisks represent significant differences compared to vehicle (P<0.05). Mann-Whitney U test. FIG. 16M: Schematic depicting two different pathways involved in EREG-mediated induction of thermogenesis and glucose uptake. EREG acts via MAPK to induce leptin secretion and also stimulates hormone sensitive lipase (HSL). HSL hydrolyzes free fatty acids activating PPARα activation. EGF, EGFR inhibition, or MAPK inhibition streamlines EREG-dependent PI3K/Akt activation that increase glucose uptake.
Human stromal vascular fraction (SVF) was isolated from iAb (omental) fat of lean and obese men and women as described before and maintained in preadipocyte culture media (Lonza, Allendale, NJ). Differentiation was carried out for 9-10 days using preadipocyte culture media supplemented with insulin, dexamethasone, IBMX and indomethacin (Lonza, Allendale, NJ).
Glucose uptake assay was performed using glucose uptake cell-based assay kit (Cayman Chemical, Ann Arbor, MI). 3T3-L1 or human preadipocytes were cultured at a density of 5×10^4 per well into a 96-well plate (n=7) in high glucose media and grown overnight. Old cell culture medium was removed the next day and washed with PBS to remove residual glucose. Supplied 2-deoxy-2-[(7-nitro-2,1,3-benzoxadiazol-4-yl)amino]-D-glucose) (2-NBDG) was diluted to 150 μg/mL in DMEM medium without glucose, phenol red, L-glutamine, sodium pyruvate, and HEPES (Life technologies, Grand Island, New York). […]

[1] = insulin resistant patient, EREG with EGFR inhibitor, 30 mins

Substance | glucose uptake in preadipocytes from lean insulin-sensitive patients | glucose uptake in preadipocytes from an insulin resistant patient | glucose uptake with inhibition of EGFR, compared to insulin response (100%) [1] | glucose uptake with inhibition of EGFR, compared to non-treated preadipocytes (100%) [1]
insulin: insulin (bovine or human) | induced similar glucose uptake | not significant |  | 
EREG: Epiregulin, member of the epidermal growth factor family; recombinant mouse or human protein | induced similar glucose uptake | dose-dependent fashion | 212% | 268%
